In patent US11780840B2 (Incyte Corporation, priority 2020, dated 2023):

Columns and labels:
[1] = target: T1, pseudo-kinase domain (JH2, amino-acids 536-812 with 3 surface mutations W659A, W777A, F794H) of human Wild Type JAK2 (Homo sapiens, UniProt O60674, F794H/W659A/W777A); test: JAK2 LanthaScreen JH2-WT Binding Assay; settings: JAK2 JH2-WT (0.145 nM), 50 nM Fluorescent JAK2-JH2 Tracer, 1 hour at 25° C.; read-out: JH2 BIND WT
T1 construct: pseudo-kinase domain (JH2, amino-acids 536-812 with 3 surface mutations W659A, W777A, F794H); His (C); Avi (biotinylated) (C); purchased BPS Bioscience 79463; host or cells: baculovirus expression system
T1 sequence (O60674 536-812 W659A/W777A/F794H): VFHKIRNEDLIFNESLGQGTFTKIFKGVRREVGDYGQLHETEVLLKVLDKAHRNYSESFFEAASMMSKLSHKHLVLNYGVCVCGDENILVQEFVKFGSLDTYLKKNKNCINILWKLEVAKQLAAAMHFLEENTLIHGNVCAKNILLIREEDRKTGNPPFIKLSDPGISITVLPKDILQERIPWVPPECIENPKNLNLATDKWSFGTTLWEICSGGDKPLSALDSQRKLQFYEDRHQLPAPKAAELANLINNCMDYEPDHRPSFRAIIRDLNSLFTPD
Experimental: Example B. JAK2 LanthaScreen JH2-WT Binding Assay
(§1) JAK2 JH2-WT binding assay utilizes pseudo-kinase domain (JH2, amino-acids 536-812 with 3 surface mutations W659A, W777A, F794H) of human Wild Type JAK2 expressed as C-terminal His-Avi-tagged, biotinylated protein in a baculovirus expression system (BPS Bioscience, Catalog #79463). The assay was conducted in black 384-well polystyrene plates in a final reaction volume of 20 μL. JAK2 JH2-WT (0.145 nM) was incubated with compounds (100 nL serially diluted in DMSO) in the presence of 50 nM Fluorescent JAK2-JH2 Tracer (MedChem Express Catalog #HY-102055) and 0.25 nM Streptavidin-Tb cryptate (Cisbio Part #610SATLB) in assay buffer (50 mM Tris, pH=7.5, 10 mM MgCl2, 0.01% Brij-35, 0.1% BSA, 1 mM EGTA, 5% Glycerol and 5 mM DTT). Non-specific binding was accessed in the presence of 2 mM ATP. After incubation for 1 hour at 25° C., LanthaScreen signals were read on a PHERAstar FS plate reader (BMG LABTECH). Data was analyzed with IDBS XLfit and GraphPad Prism 5.0 software using a four parameter dose response curve to determine IC50 for each compound.

[2] = target: T2, catalytic domain (JH1, amino acids 826-1132) of human JAK2 (Homo sapiens, UniProt O60674); test: JAK2 LanthaScreen JH1 Binding Assay; settings: JAK2 JH1 (1.5 nM), 50 nM fluorescent JAK2-JH1 tracer, 2 hours at 25° C.; read-out: JH1 BIND
T2 construct: catalytic domain (JH1, amino acids 826-1132) of human JAK2; FLAG (N); purchased Carna Biosciences 08-445-20N; host or cells: baculovirus expression system
T2 sequence (O60674 826-1132): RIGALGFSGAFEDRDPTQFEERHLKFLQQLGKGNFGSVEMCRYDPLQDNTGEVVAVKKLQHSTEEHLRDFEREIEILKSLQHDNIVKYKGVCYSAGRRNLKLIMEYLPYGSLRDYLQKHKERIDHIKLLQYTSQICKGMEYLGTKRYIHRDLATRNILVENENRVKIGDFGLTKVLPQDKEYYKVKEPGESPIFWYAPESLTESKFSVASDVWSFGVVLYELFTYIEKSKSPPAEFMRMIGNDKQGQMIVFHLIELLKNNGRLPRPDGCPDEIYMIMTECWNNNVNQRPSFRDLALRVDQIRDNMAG
Experimental: Example A. JAK2 LanthaScreen JH1 Binding Assay
JAK2 JH1 binding assay utilizes catalytic domain (JH1, amino acids 826-1132) of human JAK2 expressed as N-terminal FLAG-tagged, biotinylated protein in a baculovirus expression system (Carna Biosciences, Product #08-445-20N). The assay was conducted in black 384-well polystyrene plates in a final reaction volume of 20 μL. JAK2 JH1 (1.5 nM) was incubated with compounds (100 nL serially diluted in DMSO) in the presence of 50 nM fluorescent JAK2-JH1 tracer and 0.5 nM Streptavidin-Tb cryptate (Cisbio Part #610SATLB) in assay buffer (50 mM Tris, pH=7.5, 10 mM MgCl2, 0.01% Brij-35, 0.1% BSA, 1 mM EGTA, 5% Glycerol and 5 mM DTT). Non-specific binding was accessed in the presence of 2 mM ATP. After incubation for 2 hours at 25° C., LanthaScreen signals were read on a PHERAstar FS plate reader (BMG LABTECH). Data was analyzed with IDBS XLfit and GraphPad Prism 5.0 software using a four parameter dose response curve to determine IC50 for each compound.

[3] = target: T3, pseudo-kinase domain (JH2, amino-acids 536-812 with 3 surface mutations W659A, W777A, F794H) of human V617F mutant JAK2 (Homo sapiens, UniProt O60674, F794H/V617F/W659A/W777A); test: JAK2 LanthaScreen JH2-V617F Binding Assay; settings: JAK2 JH2-V617F (0.26 nM), 50 nM Fluorescent JAK2-JH2 Tracer, 1 hour at 25° C.; read-out: JH2 BIND V617F
T3 construct: pseudo-kinase domain (JH2, amino-acids 536-812 with 3 surface mutations W659A, W777A, F794H); His (C); Avi (biotinylated) (C); purchased BPS Bioscience 79498; host or cells: baculovirus expression system
T3 sequence (O60674 536-812 V617F/W659A/W777A/F794H): as the sequence (O60674 536-812 W659A/W777A/F794H) above, with V82F counted along it
Experimental: Example C. JAK2 LanthaScreen JH2-V617F Binding Assay
as §1, with “JH2-V617F” for “JH2-WT”, “V617F mutant” for “Wild Type”, “#79498).” for “#79463).”, “JH2-V617F (0.26” for “JH2-WT (0.145”

SMILES | IC50 [1] | IC50 [2] | IC50 [3]
CCN1CCN(c2ccc(-c3cc4c(ncc5c4n(CC(=O)N4CCCCC4)c(=O)n5C)[nH]3)cc2)CC1 [Example 17, 7-(4-(4-Ethylpiperazin-1-yl)phenyl)-3-methyl-1-(2-oxo-2-(piperidin-1-yl)ethyl)-3,6-dihydroimidazo[4,5-d]pyrrolo[2,3-b]pyridin-2(1H)-one] | > 1000 nM | > 1000 nM | > 1000 nM
CC(C)n1c(=O)n(C)c2cnc3[nH]c(-c4ccc(CN5CCC(S(C)(=O)=O)CC5)cc4)c(-c4ccccc4)c3c21 [Example 18, 1-Isopropyl-3-methyl-7-(4-((4-(methylsulfonyl)piperidin-1-yl)methyl)phenyl)-8-phenyl-3,6-dihydroimidazo[4,5-d]pyrrolo[2,3-b]pyridin-2(1H)-one] | ≤ 10 nM | 100 to 500 nM | ≤ 10 nM
COc1ccc(-c2c(-c3ccc(CN4CCC(S(C)(=O)=O)CC4)cc3)[nH]c3ncc4c(c23)n(C2CCCCC2)c(=O)n4C)cc1 [Example 19, 1-Cyclohexyl-8-(4-methoxyphenyl)-3-methyl-7-(4-((4-(methylsulfonyl)piperidin-1-yl)methyl)phenyl)-3,6-dihydroimidazo [4,5-d]pyrrolo[2,3-b]pyridin-2(1H)-one] | ≤ 10 nM | 10 to 100 nM | ≤ 10 nM
COc1ccc(-c2c(-c3ccc(CN4CCC(S(C)(=O)=O)CC4)cc3)[nH]c3ncc4c(c23)n(CC(C)C)c(=O)n4C)cc1 [Example 20, 1-Isobutyl-8-(4-methoxyphenyl)-3-methyl-7-(4-((4-(methylsulfonyl)piperidin-1-yl)methyl)phenyl)-3,6-dihydroimidazo [4,5-d]pyrrolo[2,3-b]pyridin-2(1H)-one] | ≤ 10 nM | 100 to 500 nM | ≤ 10 nM
COc1ccc(-c2c(-c3ccc(CN4CCC(S(C)(=O)=O)CC4)cc3)[nH]c3ncc4c(c23)n(C2CCC2)c(=O)n4C)cc1 [Example 21, 1-Cyclobutyl-8-(4-methoxyphenyl)-3-methyl-7-(4-((4-(methylsulfonyl)piperidin-1-yl)methyl)phenyl)-3,6-dihydroimidazo [4,5-d]pyrrolo [2,3-b]pyridin-2(1H)-one] | ≤ 10 nM | 100 to 500 nM | ≤ 10 nM
COc1ccc(-c2c(-c3ccc(CN4CCC(S(C)(=O)=O)CC4)cc3)[nH]c3ncc4c(c23)n(-c2ccccc2)c(=O)n4C)cc1 [Example 22, 8-(4-Methoxyphenyl)-3-methyl-7-(4-((4-(methylsulfonyl)piperidin-1-yl)methyl)phenyl)-1-phenyl-3,6-dihydroimidazo[4,5-d]pyrrolo[2,3-b]pyridin-2(1H)-one] | 10 to 100 nM | 100 to 500 nM | 10 to 100 nM
COc1ccc(-c2c(-c3ccc(CN4CCC(S(C)(=O)=O)CC4)cc3)[nH]c3ncc4c([nH]c(=O)n4C)c23)cc1 [Example 23, 8-(4-Methoxyphenyl)-3-methyl-7-(4-((4-(methylsulfonyl)piperidin-1-yl)methyl)phenyl)-3,6-dihydroimidazo[4,5-d]pyrrolo[2,3-b]pyridin-2(1H)-one] | 10 to 100 nM | 100 to 500 nM | 100 to 500 nM
COC1CC=C(c2c(-c3ccc(CN4CCC(S(C)(=O)=O)CC4)cc3)[nH]c3ncc4c(c23)n(C(C)(C)C)c(=O)n4C)CC1 (stereo not drawn) [Example 24, 1-(tert-Butyl)-8-(4-methoxycyclohex-1-en-1-yl)-3-methyl-7-(4-((4-(methylsulfonyl)piperidin-1-yl)methyl)phenyl)-3,6-dihydroimidazo[4,5-d]pyrrolo[2,3-b] pyridin-2(1H)-one] | ≤ 10 nM | 500 to 1000 nM | ≤ 10 nM
CC(C)n1c(=O)n(C)c2cnc3[nH]c(-c4ccc(CN5CCC(S(C)(=O)=O)CC5)cc4)c(-c4ccc(C#N)cc4)c3c21 [Example 25, 4-(1-Isopropyl-3-methyl-7-(4-((4-(methylsulfonyl)piperidin-1-yl)methyl)phenyl)-2-oxo-1,2,3,6-tetrahydroimidazo [4,5-d]pyrrolo[2,3-b]pyridin-8-yl)benzonitrile] | ≤ 10 nM | 500 to 1000 nM | ≤ 10 nM
CC(C)n1c(=O)n(C)c2cnc3[nH]c(-c4ccc(CN5CCC(S(C)(=O)=O)CC5)cc4)c(-c4ccc(C5(C#N)CC5)cc4)c3c21 [Example 26, 1-(4-(1-Isopropyl-3-methyl-7-(4-((4-(methylsulfonyl)piperidin-1-yl)methyl)phenyl)-2-oxo-1,2,3,6-tetrahydroimidazo [4,5-d]pyrrolo[2,3-b]pyridin-8-yl)phenyl) cyclopropane-1-carbonitrile] | ≤ 10 nM | > 1000 nM | ≤ 10 nM
CC(C)n1c(=O)n(C)c2cnc3[nH]c(-c4ccc(CN5CCC(S(C)(=O)=O)CC5)cc4)c(-c4cnn(Cc5ccc(C(=O)O)cc5)c4)c3c21 [Example 27, 4-((4-(1-Isopropyl-3-methyl-7-(4-((4-(methylsulfonyl)piperidin-1-yl)methyl)phenyl)-2-oxo-1,2,3,6-tetrahydroimidazo [4,5-d]pyrrolo[2,3-b]pyridin-8-yl)-1H-pyrazol-1-yl)methyl)benzoic acid] | ≤ 10 nM | 100 to 500 nM | ≤ 10 nM
Cn1c(=O)n(C2CCCC2)c2c3c(-c4ccccc4)c(-c4ccc(CN5CCC(S(C)(=O)=O)CC5)cc4)[nH]c3ncc21 [Example 28, 1-Cyclopentyl-3-methyl-7-(4-((4-(methylsulfonyl)piperidin-1-yl)methyl)phenyl)-8-phenyl-3,6-dihydroimidazo[4,5-d]pyrrolo[2,3-b]pyridin-2(1H)-one] | ≤ 10 nM | 100 to 500 nM | ≤ 10 nM
Cn1c(=O)n(C2CCCC2)c2c3c(-c4ccccc4)c(-c4cnn(CS(C)(=O)=O)c4)[nH]c3ncc21 [Example 29, 1-Cyclopentyl-3-methyl-7-(1-((methylsulfonyl)methyl)-1H-pyrazol-4-yl)-8-phenyl-3,6-dihydroimidazo[4,5-d]pyrrolo[2,3-b]pyridin-2(1H)-one] | ≤ 10 nM | 100 to 500 nM | ≤ 10 nM
Cn1c(=O)n(C2CCCC2)c2c3c(-c4ccc(C5(C#N)CC5)cc4)c(-c4ccc(CN5CCC(S(C)(=O)=O)CC5)cc4)[nH]c3ncc21 [Example 30, 1-(4-(1-Cyclopentyl-3-methyl-7-(4-((4-(methylsulfonyl)piperidin-1-yl)methyl)phenyl)-2-oxo-1,2,3,6-tetrahydroimidazo [4,5-d]pyrrolo[2,3-b]pyridin-8-yl)phenyl)cyclo-propane-1-carbonitrile] | ≤ 10 nM | 100 to 500 nM | ≤ 10 nM
